Laboratory results reported in publication PMC12657724, “Structures of a lipin/Pah phosphatidic acid phosphatase in distinct catalytic states reveal a signature motif for substrate recognition” (The Journal of Biological Chemistry, 2025).

Target: T1, Tt Pah2 (WT, residues 1-321) (Tetrahymena thermophila, UniProt I7MFJ3)
T1 construct: gene TTHERM_00215970; residues 1-321, codon-optimised, N-terminal His-tag (pET28) kept, E. coli BL21(DE3) RIPL
T1 sequence (I7MFJ3 1-321): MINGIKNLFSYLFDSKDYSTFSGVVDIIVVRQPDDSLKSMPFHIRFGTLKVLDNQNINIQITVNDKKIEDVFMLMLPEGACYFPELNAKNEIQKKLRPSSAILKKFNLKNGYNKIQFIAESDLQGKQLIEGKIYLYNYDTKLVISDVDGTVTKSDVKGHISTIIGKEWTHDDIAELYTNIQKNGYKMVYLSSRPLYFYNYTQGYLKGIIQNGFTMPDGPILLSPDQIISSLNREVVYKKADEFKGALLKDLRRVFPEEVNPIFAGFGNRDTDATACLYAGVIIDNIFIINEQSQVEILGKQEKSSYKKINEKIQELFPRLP
Experiment: absorbance at […] nm (p-nitrophenol release)
Type: biochemical
Settings: Mg2+, pH 8, ambient temperature, 56 μM enzyme; very slow turnover

Compound: O=[N+]([O-])c1ccc(OP(=O)(O)O)cc1 [pNPP]
- absorbance at 405 nm (p-nitrophenol release): we were able to observe detectable pNPP hydrolysis, albeit at a low rate
